Consider 22 compounds from EP3789378A1, “PIPERIDINES OR PIPERIDONES SUBSTITUTED WITH UREA AND HETEROARYL” (Grünenthal GmbH, priority 2019, dated 2021).

For one assay, the target named is T1, h FPR2 (Homo sapiens, UniProt P25090).
T1 construct: expressed in transfected cells
T1 sequence (P25090 1-351): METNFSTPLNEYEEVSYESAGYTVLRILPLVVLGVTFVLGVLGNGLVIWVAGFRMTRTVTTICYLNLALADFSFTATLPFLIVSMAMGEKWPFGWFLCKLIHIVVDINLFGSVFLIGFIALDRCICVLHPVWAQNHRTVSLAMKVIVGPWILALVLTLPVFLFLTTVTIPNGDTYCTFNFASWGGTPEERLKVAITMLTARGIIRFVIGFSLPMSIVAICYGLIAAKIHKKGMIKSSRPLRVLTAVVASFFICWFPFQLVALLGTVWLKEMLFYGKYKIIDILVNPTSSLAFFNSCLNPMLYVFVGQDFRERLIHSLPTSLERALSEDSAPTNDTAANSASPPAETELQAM
Nature of the assay: Agonistic activity in hFPR2-Aq-CHO cells (FLIPR Calcium 5 fluorescence assay). It is filed as cell-based. Conditions: 11 point half log dilution, final assay concentration from 10µM. Summed up:
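EC50 reflects the compound-evoked rise in Calcium 5 fluorescence over basal, recorded for 5 min on FLIPR and compared with no-compound wells. Dye-loaded hFPR2-Aq-CHO cells received half-log dilutions from 10 µM to 100 pM final in pH 7.4 HBSS buffer.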
Broadly, the EC50 is the concentration giving half of the maximal effect. As to `COc1ccc([C@@H]2CN(CC3CC3)CC[C@H]2NC(=O)Nc2ccc(Cl)cc2)nc1` (single isomer, unassigned) [Ex-172, trans-1-(4-Chlorophenyl)-3-[1-(cyclopropyl-methyl)-3-(5-methoxy-pyridin-2-yl)-piperidin-4-yl]-urea], the EC50 stood at 0.18 nM.
Consider `COc1ccc([C@@H]2CN(CCS(C)(=O)=O)CC[C@H]2NC(=O)Nc2ccccc2)nc1` (relative stereo) [Ex-160, trans-1-[3-(5-Methoxy-pyridin-2-yl)-1-(2-methylsulfonyl-ethyl)-piperidin-4-yl]-3-phenyl-urea], for which the 50% effective concentration (EC50) turned out to be 88 nM.
On the same count and under the same terms, the figure for `COc1ccc([C@@H]2CN(Cc3ccn(S(C)(=O)=O)n3)CC[C@H]2NC(=O)Nc2ccccc2)nc1` (single isomer, unassigned) [Ex-58, trans-3-[1-[(1-methanesulfonyl-1H-pyrazol-3-yl)methyl]-3-(5-methoxypyridin-2-yl)piperidin-4-yl]-1-phenylurea] is 0.4 nM; for `COc1ccc([C@@H]2CN(C(=O)C3CC(O)C3)CC[C@H]2NC(=O)Nc2cc(C)ns2)nc1` (single isomer, unassigned) [Ex-183, trans-1-[1'-(3-hydroxy-cyclobutanecarbonyl)-5-methoxy-1',2',3',4',5',6'-hexahydro-[2,3']bipyridinyl-4'-yl]-3-(3-methyl-isothiazol-5-yl)-urea] it is 89 nM.
Same read-out and setting: the figure for `COc1ccc([C@@H]2CN(C(=O)C3COC3)CC[C@H]2NC(=O)Nc2cc(C)ns2)nc1` (relative stereo) [Ex-119, trans-1-[3-(5-Methoxy-pyridin-2-yl)-1-(oxetane-3-carbonyl)-piperidin-4-yl]-3-(3-methyl-isothiazol-5-yl)-urea] is 9 nM; for `COc1ccc([C@H]2CN(CC(=O)N(C)C)CC[C@@H]2NC(=O)Nc2ccc(Cl)cc2)nc1` [Ex-216] it is 2 nM.
The same measure, in the same setting: with `COc1ccc([C@@H]2CN(c3cncc(C)n3)CC[C@H]2NC(=O)Nc2ccc(Cl)cc2)nc1` (relative stereo) [Ex-224, trans-1-(4-chloro-phenyl)-3-[5-methoxy-1'-(6-methyl-pyrazin-2-yl)-1',2',3',4',5',6'-hexahydro-[2,3']bipyridinyl-4'-yl]-urea] the figure was 5 nM.
On to `CS(=O)(=O)n1ccc(CN2CC[C@@H](NC(=O)Nc3ccc(Cl)cc3)[C@H](c3ccc(Cl)s3)C2)n1` (single isomer, unassigned) [Ex-78, trans-1-(4-chlorophenyl)-3-[3-(5-chlorothiophen-2-yl)-1-[(1-methanesulfonyl-1H-pyrazol-3-yl)methyl]piperidin-4-yl]urea], for which the EC50 worked out at 52 nM.
The same measure, in the same setting: with `COCCCN1CC[C@@H](NC(=O)Nc2ccc(Cl)cc2)[C@H](c2ccc(Cl)s2)C1` (relative stereo) [Ex-91, trans-1-(4-chloro-phenyl)-3-[3-(5-chloro-thiophen-2-yl)-1-(3-methoxy-propyl)-piperidin-4-yl]-urea] the figure was 11 nM; with `COc1ccc([C@@H]2CN(Cc3cnn(S(C)(=O)=O)c3)CC[C@H]2NC(=O)Nc2ccc(Cl)cc2)nc1` (relative stereo) [Ex-125, trans-1-(4-Chlorophenyl)-3-[3-(5-methoxy-pyridin-2-yl)-1-[(1-methylsulfonyl-1H-pyrazol-4-yl)-methyl]-piperidin-4-yl]-urea], 0.09 nM.
On the same count and under the same terms, with `CNCCCN1CC[C@@H](NC(=O)Nc2ccc(Cl)cc2)[C@H](c2ccc(OC)cn2)C1` (relative stereo) [Ex-137, trans-1-(4-Chlorophenyl)-3-[3-(5-methoxy-pyridin-2-yl)-1-(3-methylamino-propyl)-piperidin-4-yl]-urea] the figure was 0.2 nM; with `COc1ccc([C@@H]2CN(CCS(C)(=O)=O)CC[C@H]2NC(=O)Nc2cc(C)ns2)nc1` (relative stereo) [Ex-148, trans-1-[3-(5-Methoxy-pyridin-2-yl)-1-(2-methylsulfonyl-ethyl)-piperidin-4-yl]-3-(3-methyl-isothiazol-5-yl)-urea], 6 nM.
As to `COc1ccc([C@@H]2CN(c3ccnc(C)n3)CC[C@H]2NC(=O)Nc2cc(C)ns2)nc1` (relative stereo) [Ex-211, trans-1-[5-methoxy-1'-(2-methyl-pyrimidin-4-yl)-1',2',3',4',5',6'-hexahydro-[2,3']bipyridinyl-4'-yl]-3-(3-methyl-isothiazol-5-yl)-urea], the EC50 is 7 nM.
`COc1ccc([C@@H]2CN(Cc3cc(C)on3)CC[C@H]2NC(=O)Nc2ccc(Cl)cc2)nc1` (single isomer, unassigned) [Ex-29, trans-1-(4-chlorophenyl)-3-[3-(5-methoxypyridin-2-yl)-1-[(5-methyl-1,2-oxazol-3-yl)methyl]piperidin-4-yl]urea]: the EC50 worked out at 11 nM.
On the same count and under the same terms, with `COc1ccc([C@@H]2CN(Cc3ccc(C4CC4)nc3)CC[C@H]2NC(=O)Nc2ccc(Cl)cc2)nc1` (relative stereo) [Ex-65, trans-1-(4-chlorophenyl)-3-[1-[(6-cyclopropylpyridin-3-yl)methyl]-3-(5-methoxypyridin-2-yl)piperidin-4-yl]urea] the figure was 0.09 nM; with `COCCN1CC[C@@H](NC(=O)Nc2ccc(C#N)cc2)[C@H](c2ccc(OC)cn2)C1` (relative stereo) [Ex-154, trans-1-(4-Cyano-phenyl)-3-[1-(2-methoxy-ethyl)-3-(5-methoxy-pyridin-2-yl)-piperidin-4-yl]-urea], 10 nM.
Still for that read-out and setting: with `COc1ccc([C@@H]2CN(c3ccc(F)cc3)CC[C@H]2NC(=O)Nc2ccc(Cl)cc2)cn1` (relative stereo) [Ex-2, trans-1-(4-chloro-phenyl)-3-[1-(4-fluoro-phenyl)-6'-methoxy-1,2,3,4,5,6-hexahydro-[3,3']bipyridinyl-4-yl]-urea] the figure was 11 nM; with `COc1ccc([C@@H]2CN(CC3CCC(OC)CC3)CC[C@H]2NC(=O)Nc2ccc(Cl)cc2)nc1` (relative stereo) [Ex-115, trans-1-(4-chloro-phenyl)-3-[5-methoxy-1'-(4-methoxy-cyclohexylmethyl)-1',2',3',4',5',6'-hexahydro-[2,3']bipyridinyl-4'-yl]-urea], 0.5 nM.
Still for that read-out and setting: the figure for `COc1ccc([C@@H]2CN(Cc3ccc(C(F)(F)F)nc3)CC[C@H]2NC(=O)Nc2ccc(Cl)cc2)nc1` (relative stereo) [Ex-60, trans-1-(4-chlorophenyl)-3-(3-(5-methoxypyridin-2-yl)-1-((6-(trifluoromethyl)pyridin-3-yl)methyl)piperidin-4-yl)urea] is 0.04 nM.

The same assay, now with this note: agonistic response at 0.1µM.
With `COc1ccc([C@@H]2CN(C(=O)CO)CC[C@H]2NC(=O)Nc2ccccc2)nc1` (relative stereo) [Ex-139, trans-1-[1-(2-Hydroxy-acetyl)-3-(5-methoxy-pyridin-2-yl)-piperidin-4-yl]-3-phenyl-urea], the activation at 0.1 µM came out at 34%.
The same measure, in the same setting: the figure for `COc1ccc([C@@H]2CN(CC(N)=O)CC[C@H]2NC(=O)Nc2ccc(Cl)cc2)nc1` (relative stereo) [Ex-171, trans-2-[4-[[(4-Chlorophenyl)-carbamoyl]amino]-3-(5-methoxy-pyridin-2-yl)-piperidin-1-yl]-acetamide] is 3%.
Consider `COCCC(=O)N1CC[C@@H](NC(=O)Nc2ccc(Cl)cc2)[C@H](c2ccc(Cl)s2)C1` (relative stereo) [Ex-106, trans-1-(4-chloro-phenyl)-3-[3-(5-chloro-thiophen-2-yl)-1-(3-methoxy-propionyl)-piperidin-4-yl]-urea], for which the activation at 0.1 µM was found to be 41%.
